Laboratory results from paper PMC3082038 (Cancer Chemotherapy and Pharmacology, 2010).

Assay: Plasma pharmacokinetics of TSU-68 in phase I patients
Assay type: in vivo, human
Conditions: for AUC(0-t) / AUC / Cmax / half-life / Tmax: human, plasma, oral

With `Cc1[nH]c(/C=C2\C(=O)Nc3ccccc32)c(C)c1CCC(=O)O` [TSU-68, (Z)-5-[(1,2-dihydro-2-oxo-3H-indol-3-ylidene)methyl]-2,4-dimethyl-1H-pyrrole-3-propanoic acid] the “AUC0–t” value (b.i.d. after meal, 1st dose, 400 mg/m^2, n=6, mean ± SD) was 76.44 ± 23.07 h, the “AUC0–t” value (b.i.d. after meal, 3rd dose, 200 mg/m^2, n=3, mean ± SD) was 33.28 ± 4.329 h and the “AUC0–t” value (b.i.d. after meal, 3rd dose, 500 mg/m^2, n=3, mean ± SD) was 45.74 ± 14.59 h. For the same compound, the “C max and AUC after repeated administration versus 1st administration on day 1” value (b.i.d. regimen, any dose level, days 2 and 28) was “approximately twofold lower”, the AUC(0-t) (200 mg/m2, AUC0–t, b.i.d. after meal, 1st dose, 200 mg/m^2, n=3, mean ± SD) was 55200 ± 5360 ng·h/mL and the AUC(0-t) (200 mg/m2, AUC0–t, b.i.d. after meal, 56th dose, 200 mg/m^2, n=3, mean ± SD) was 32200 ± 1540 ng·h/mL. The AUC(0-t) (200 mg/m2, AUC0–t, t.i.d. after meal, 1st dose, 200 mg/m^2, n=6, mean ± SD) was 37000 ± 18200 ng·h/mL, the AUC(0-t) (200 mg/m2, AUC0–t, t.i.d. after meal, 2nd dose, 200 mg/m^2, n=6, mean ± SD) was 31500 ± 12500 ng·h/mL and the AUC (200 mg/m2, AUC Day 28, Pt 1, Cervical ca., b.i.d. 200 mg/m^2 (800 mg/day)) was 32800 ng·h/mL. It also gave an AUC (200 mg/m2, AUC Day 28, Pt 2, NSCLC, b.i.d. 200 mg/m^2 (800 mg/day)) of 33400 ng·h/mL, an AUC (200 mg/m2, AUC Day 28, Pt 13, Colon ca., t.i.d. 200 mg/m^2 (1200 mg/day)) of 25300 ng·h/mL and an AUC (200 mg/m2, AUC Day 28, Pt 14, Soft tissue sa., t.i.d. 200 mg/m^2 (600 mg/day)) of 19000 ng·h/mL. The Cmax (200 mg/m2, C max, b.i.d. after meal, 1st dose, 200 mg/m^2, n=3, mean ± SD) was 11200 ± 1150 ng/mL, the Cmax (200 mg/m2, C max, b.i.d. after meal, 3rd dose, 200 mg/m^2, n=3, mean ± SD) was 6000 ± 671 ng/mL and the Cmax (200 mg/m2, C max, b.i.d. after meal, 56th dose, 200 mg/m^2, n=3, mean ± SD) was 4790 ± 526 ng/mL. It also gave a Cmax (200 mg/m2, C max, t.i.d. after meal, 1st dose, 200 mg/m^2, n=6, mean ± SD) of 11000 ± 5530 ng/mL, a Cmax (200 mg/m2, C max, t.i.d. after meal, 2nd dose, 200 mg/m^2, n=6, mean ± SD) of 7010 ± 2410 ng/mL and a Cmax (200 mg/m2, C max, t.i.d. after meal, 84th dose, 200 mg/m^2, n=6, mean ± SD) of 3850 ± 2980 ng/mL. It also gave a half-life (200 mg/m2, T 1/2, b.i.d. after meal, 1st dose, 200 mg/m^2, n=3, mean ± SD) of 2.37 ± 0.86 h, a half-life (200 mg/m2, T 1/2, b.i.d. after meal, 3rd dose, 200 mg/m^2, n=3, mean ± SD) of 2.71 ± 0.471 h and a half-life (200 mg/m2, T 1/2, b.i.d. after meal, 56th dose, 200 mg/m^2, N = 2, mean) of 3.47 h. For the same compound, the half-life (200 mg/m2, T 1/2, t.i.d. after meal, 1st dose, 200 mg/m^2, N = 3, mean ± SD) was 2.04 ± 0.461 h, the half-life (200 mg/m2, T 1/2, t.i.d. after meal, 2nd dose, 200 mg/m^2, N = 2, mean) was 2.99 h and the Tmax (200 mg/m2, T max, b.i.d. after meal, 1st dose, 200 mg/m^2, n=3, mean ± SD) was 3 ± 1 h. It also gave a Tmax (200 mg/m2, T max, b.i.d. after meal, 3rd dose, 200 mg/m^2, n=3, mean ± SD) of 3.5 ± 2.29 h, a Tmax (200 mg/m2, T max, b.i.d. after meal, 56th dose, 200 mg/m^2, n=3, mean ± SD) of 2.67 ± 1.16 h and a Tmax (200 mg/m2, T max, t.i.d. after meal, 1st dose, 200 mg/m^2, n=6, mean ± SD) of 3.08 ± 1.43 h. For the same compound, the Tmax (200 mg/m2, T max, t.i.d. after meal, 2nd dose, 200 mg/m^2, n=6, mean ± SD) was 3.67 ± 1.37 h, the Tmax (200 mg/m2, T max, t.i.d. after meal, 84th dose, 200 mg/m^2, n=6, mean ± SD) was 2 ± 1.05 h and the AUC (200 mg/m^2 t.i.d., AUC Day 28, Pt 18, Colon ca., t.i.d. 200 mg/m^2 (1,200 mg/day)) was 12500 ng·h/mL. It also gave an AUC(0-t) (400 mg/m2, AUC0–t, b.i.d. after meal, 3rd dose, 400 mg/m^2, n=6, mean ± SD) of 40400 ± 10600 ng·h/mL, an AUC(0-t) (400 mg/m2, AUC0–t, b.i.d. after meal, 56th dose, 400 mg/m^2, N = 4, mean ± SD) of 36900 ± 20300 ng·h/mL and an AUC(0-t) (400 mg/m2, AUC0–t, t.i.d. after meal, 1st dose, 400 mg/m^2, n=6, mean ± SD) of 41600 ± 21600 ng·h/mL. For the same compound, the AUC(0-t) (400 mg/m2, AUC0–t, t.i.d. after meal, 2nd dose, 400 mg/m^2, n=6, mean ± SD) was 42000 ± 18900 ng·h/mL, the AUC(0-t) (400 mg/m2, AUC0–t, t.i.d. after meal, 84th dose, 400 mg/m^2, n=6, mean ± SD) was 31600 ± 16100 ng·h/mL and the Cmax (400 mg/m2, C max, b.i.d. after meal, 1st dose, 400 mg/m^2, n=6, mean ± SD) was 17100 ± 6590 ng/mL. For the same compound, the Cmax (400 mg/m2, C max, b.i.d. after meal, 3rd dose, 400 mg/m^2, n=6, mean ± SD) was 8290 ± 2720 ng/mL, the Cmax (400 mg/m2, C max, b.i.d. after meal, 56th dose, 400 mg/m^2, N = 4, mean ± SD) was 8410 ± 5870 ng/mL and the Cmax (400 mg/m2, C max, t.i.d. after meal, 1st dose, 400 mg/m^2, n=6, mean ± SD) was 12400 ± 5760 ng/mL. The Cmax (400 mg/m2, C max, t.i.d. after meal, 2nd dose, 400 mg/m^2, n=6, mean ± SD) was 9340 ± 4510 ng/mL, the Cmax (400 mg/m2, C max, t.i.d. after meal, 84th dose, 400 mg/m^2, n=6, mean ± SD) was 4780 ± 1950 ng/mL and the half-life (400 mg/m2, T 1/2, b.i.d. after meal, 1st dose, 400 mg/m^2, n=6, mean ± SD) was 2.94 ± 0.692 h. The half-life (400 mg/m2, T 1/2, b.i.d. after meal, 3rd dose, 400 mg/m^2, n=6, mean ± SD) was 3.45 ± 1.37 h, the half-life (400 mg/m2, T 1/2, b.i.d. after meal, 56th dose, 400 mg/m^2 (6), mean ± SD) was 2.6 ± 0.527 h and the half-life (400 mg/m2, T 1/2, t.i.d. after meal, 1st dose, 400 mg/m^2, N = 1) was 2.61 h. The half-life (400 mg/m2, T 1/2, t.i.d. after meal, 2nd dose, 400 mg/m^2, N = 3, mean ± SD) was 2.41 ± 1.14 h, the half-life (400 mg/m2, T 1/2, t.i.d. after meal, 84th dose, 400 mg/m^2, N = 2, mean) was 2.23 h and the Tmax (400 mg/m2, T max, b.i.d. after meal, 1st dose, 400 mg/m^2, n=6, mean ± SD) was 2.67 ± 0.817 h. For the same compound, the Tmax (400 mg/m2, T max, b.i.d. after meal, 3rd dose, 400 mg/m^2, n=6, mean ± SD) was 2.67 ± 0.817 h, the Tmax (400 mg/m2, T max, b.i.d. after meal, 56th dose, 400 mg/m^2, N = 4, mean ± SD) was 2.38 ± 0.75 h and the Tmax (400 mg/m2, T max, t.i.d. after meal, 1st dose, 400 mg/m^2, n=6, mean ± SD) was 3.42 ± 1.2 h. For the same compound, the Tmax (400 mg/m2, T max, t.i.d. after meal, 2nd dose, 400 mg/m^2, n=6, mean ± SD) was 3 ± 1.79 h, the Tmax (400 mg/m2, T max, t.i.d. after meal, 84th dose, 400 mg/m^2, n=6, mean ± SD) was 2.92 ± 1.2 h and the AUC (400 mg/m^2 t.i.d., AUC Day 28, Pt 20, Colon ca., t.i.d. 400 mg/m^2 (1,800 mg/day)) was 46800 ng·h/mL. For the same compound, the AUC(0-t) (500 mg/m2, AUC0–t, b.i.d. after meal, 1st dose, 500 mg/m^2, n=3, mean ± SD) was 103000 ± 45600 ng·h/mL and the AUC(0-t) (500 mg/m2, AUC0–t, b.i.d. after meal, 56th dose, 500 mg/m^2, n=3, mean ± SD) was 43200 ± 18700 ng·h/mL.
